Target: T1, STING (Homo sapiens, UniProt Q86WV6, G230A/H232R/R293Q/R71H)
T1 construct: host or cells: THP1-Dual KO-IFNAR2 cells
Assay: STING reporter assay in THP1-Dual KO-IFNAR2 cells (luciferase reporter, 2′3′cGAMP stimulation)
Format: cell-based
Conditions: 2′3′cGAMP 15 μM, 24 h, luciferase reporter activity, GeoMean, read-out: Pharmaron, THP1_IFNAR2 STING 24 h Luci Normalized: GeoMean EC50
Procedure: STING pathway activation by the compounds described herein was measured using THP1-Dual™ cells (KO-IFNAR2).
THP1-Dual™ KO-IFNAR2 Cells (obtained from invivogen) were maintained in RPMI, 10% FCS, 5 ml P/S, 2 mM L-glut, 10 mM Hepes, and 1 mM sodium pyruvate. Compounds were spotted in empty 384 well tissue culture plates (Greiner 781182) by Echo for a final concentration of 0.0017-100 μM. Cells were plated into the TC plates at 40 μL per well, 2×10E6 cells/mL. For activation with STING ligand, 2′3′cGAMP (MW 718.38, obtained from Invivogen), was prepared in Optimem media.
The following solutions were prepared for each 1×384 plate: • Solution A: 2 mL Optimem with one of the following stimuli: • […] of 10 mM 2′3′cGAMP→150 μM stock • Solution B: 2 mL Optimem with 60 μL Lipofectamine 2000→Incubate 5 min at RT • 2 mL of solution A and 2 ml Solution B was mixed and incubated for 20 min at room temperature (RT). 20 μL of transfection solution (A+B) was added on top of the plated cells, with a final 2′3′cGAMP concentration of 15 μM. The plates were then centrifuged immediately at 340 g for 1 minute, after which they were incubated at 37° C., 5% CO2, >98% humidity for 24 h. Luciferase reporter activity was then measured. EC50 values were calculated by using standard methods known in the art.
Luciferase reporter assay: 10 μL of supernatant from the assay was transferred to white 384-plate with flat bottom and squared wells. One pouch of QUANTI-Luc™ Plus was dissolved in 25 mL of water. 100 μL of QLC Stabilizer per 25 mL of QUANTI-Luc™ Plus solution was added. 50 μL of QUANTI-Luc™ Plus/QLC solution per well was then added. Luminescence was measured on a Platereader (e.g., Spectramax I3X (Molecular Devices GF3637001)).
Luciferase reporter activity was then measured. EC50 values were calculated by using standard methods known in the art.

T1 sequence (Q86WV6 whole entry R71H/G230A/H232R/R293Q): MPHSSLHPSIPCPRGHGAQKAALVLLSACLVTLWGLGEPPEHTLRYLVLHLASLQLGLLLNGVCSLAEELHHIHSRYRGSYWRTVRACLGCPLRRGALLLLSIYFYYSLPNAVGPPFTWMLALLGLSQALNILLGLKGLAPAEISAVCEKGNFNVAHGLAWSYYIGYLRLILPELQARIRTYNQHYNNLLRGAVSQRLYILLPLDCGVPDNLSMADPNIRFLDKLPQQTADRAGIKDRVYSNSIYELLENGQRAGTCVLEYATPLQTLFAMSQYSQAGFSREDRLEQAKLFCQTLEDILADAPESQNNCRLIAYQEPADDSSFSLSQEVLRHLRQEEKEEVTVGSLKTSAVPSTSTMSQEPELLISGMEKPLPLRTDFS

| EC50 | Structure (SMILES) |
| --- | --- |
| 200 to 1000 nM | O=S(=O)(Nc1c[nH]c2ccc(CCOc3ccc(C(F)(F)F)cc3)cc12)c1cccc(Cl)n1 [Compound 104, 6-chloro-N-(5-(2-(4-(trifluoromethyl)phenoxy)ethyl)-1H-indol-3-yl)pyridine-2-sulfonamide] |
| 200 to 1000 nM | O=S(=O)(Nc1c[nH]c2ccc(CCOc3ccc(C(F)(F)F)cc3)cc12)C1CCOCC1 [Compound 105, N-(5-(2-(4-(trifluoromethyl)phenoxy)ethyl)-1H-indol-3-yl)tetrahydro-2H-pyran-4-sulfonamide] |
| 40 to 200 nM | O=S(=O)(CCC(F)(F)F)Nc1c[nH]c2ccc(CCOc3ccc(C(F)(F)F)cc3)cc12 [Compound 106, 3,3,3-trifluoro-N-(5-(2-(4-(trifluoromethyl)phenoxy)ethyl)-1H-indol-3-yl)propane-1-sulfonamide] |
| 200 to 1000 nM | Cn1ccc(S(=O)(=O)Nc2c[nH]c3ccc(CCOc4ccc(C(F)(F)F)cc4)cc23)n1 [Compound 107, 1-methyl-N-(5-(2-(4-(trifluoromethyl)phenoxy)ethyl)-1H-indol-3-yl)-1H-pyrazole-3-sulfonamide] |
| 200 to 1000 nM | O=S(=O)(CC1CCOCC1)Nc1c[nH]c2ccc(CCOc3ccc(C(F)(F)F)cc3)cc12 [Compound 108, 1-(tetrahydro-2H-pyran-4-yl)-N-(5-(2-(4-(trifluoromethyl)phenoxy)ethyl)-1H-indol-3-yl)methanesulfonamide] |
| 200 to 1000 nM | COCCS(=O)(=O)Nc1c[nH]c2ccc(CCOc3ccc(C(F)(F)F)cc3)cc12 [Compound 109, 2-methoxy-N-(5-(2-(4-(trifluoromethyl)phenoxy)ethyl)-1H-indol-3-yl)ethane-1-sulfonamide] |
| 40 to 200 nM | Cn1cc(S(=O)(=O)Nc2c[nH]c3ccc(OCCc4ccc(C(F)(F)F)cc4)cc23)cn1 [Compound 110, 1-methyl-N-(5-(4-(trifluoromethyl)phenethoxy)-1H-indol-3-yl)-1H-pyrazole-4-sulfonamide] |
| 200 to 1000 nM | Cn1cnc(S(=O)(=O)Nc2c[nH]c3ccc(CCOc4ccc(C(F)(F)F)cc4)cc23)c1 [Compound 111, 1-methyl-N-(5-(2-(4-(trifluoromethyl)phenoxy)ethyl)-1H-indol-3-yl)-1H-imidazole-4-sulfonamide] |
| 200 to 1000 nM | O=S(=O)(CCC1CC1)Nc1c[nH]c2ccc(CCOc3ccc(C(F)(F)F)cc3)cc12 [Compound 112, 2-cyclopropyl-N-(5-(2-(4-(trifluoromethyl)phenoxy)ethyl)-1H-indol-3-yl)ethane-1-sulfonamide] |
| 200 to 1000 nM | CCS(=O)(=O)Nc1c[nH]c2ccc(CCOc3ccc(C(F)(F)F)cc3)cc12 [Compound 113, N-(5-(2-(4-(trifluoromethyl)phenoxy)ethyl)-1H-indol-3-yl)ethanesulfonamide] |
| 200 to 1000 nM | O=S(=O)(CC1CCC1)Nc1c[nH]c2ccc(CCOc3ccc(C(F)(F)F)cc3)cc12 [Compound 114, 1-cyclobutyl-N-(5-(2-(4-(trifluoromethyl)phenoxy)ethyl)-1H-indol-3-yl)methanesulfonamide] |
| 200 to 1000 nM | O=S(=O)(Nc1c[nH]c2ccc(OCCc3ccc(C(F)(F)F)cc3)cc12)C1CCOCC1 [Compound 115, N-(5-(4-(trifluoromethyl)phenethoxy)-1H-indol-3-yl)tetrahydro-2H-pyran-4-sulfonamide] |
| 200 to 1000 nM | Cn1ccc(S(=O)(=O)Nc2c[nH]c3ccc(OCCc4ccc(C(F)(F)F)cc4)cc23)n1 [Compound 116, 1-methyl-N-(5-(4-(trifluoromethyl)phenethoxy)-1H-indol-3-yl)-1H-pyrazole-3-sulfonamide] |
| 200 to 1000 nM | O=S(=O)(CC1CCCO1)Nc1c[nH]c2ccc(OCCc3ccc(C(F)(F)F)cc3)cc12 (centres unmarked) [Compound 117, 1-(tetrahydrofuran-2-yl)-N-(5-(4-(trifluoromethyl)phenethoxy)-1H-indol-3-yl)methanesulfonamide] |
| 200 to 1000 nM | Cn1cnc(S(=O)(=O)Nc2c[nH]c3ccc(OCCc4ccc(C(F)(F)F)cc4)cc23)c1 [Compound 118, 1-methyl-N-(5-(4-(trifluoromethyl)phenethoxy)-1H-indol-3-yl)-1H-imidazole-4-sulfonamide] |
| 40 to 200 nM | O=S(=O)(CC1CCC1)Nc1c[nH]c2ccc(OCCc3ccc(C(F)(F)F)cc3)cc12 [Compound 119, 1-cyclobutyl-N-(5-(4-(trifluoromethyl)phenethoxy)-1H-indol-3-yl)methanesulfonamide] |
| 200 to 1000 nM | O=S(=O)(CCC(F)(F)F)Nc1c[nH]c2ccc(OCCc3ccc(C(F)(F)F)cc3)cc12 [Compound 120, 3,3,3-trifluoro-N-(5-(4-(trifluoromethyl)phenethoxy)-1H-indol-3-yl)propane-1-sulfonamide] |
| 200 to 1000 nM | CCS(=O)(=O)Nc1c[nH]c2ccc(OCCc3ccc(C(F)(F)F)cc3)cc12 [Compound 121, N-(5-(4-(trifluoromethyl)phenethoxy)-1H-indol-3-yl)ethanesulfonamide] |
| 40 to 200 nM | O=S(=O)(Cc1ccccc1)Nc1c[nH]c2ccc(OCCc3ccc(C(F)(F)F)cc3)cc12 [Compound 122, 1-phenyl-N-(5-(4-(trifluoromethyl)phenethoxy)-1H-indol-3-yl)methanesulfonamide] |
| 200 to 1000 nM | COCCS(=O)(=O)Nc1c[nH]c2ccc(OCCc3ccc(C(F)(F)F)cc3)cc12 [Compound 123, 2-methoxy-N-(5-(4-(trifluoromethyl)phenethoxy)-1H-indol-3-yl)ethane-1-sulfonamide] |
| 40 to 200 nM | O=S(=O)(CC1CC1)Nc1c[nH]c2ccc(OCCc3ccc(C(F)(F)F)cc3)cc12 [Compound 124, 1-cyclopropyl-N-(5-(4-(trifluoromethyl)phenethoxy)-1H-indol-3-yl)methanesulfonamide] |
| 200 to 1000 nM | O=S(=O)(CC1CCCO1)Nc1c[nH]c2ccc(CCOc3ccc(C(F)(F)F)cc3)cc12 (centres unmarked) [Compound 125, 1-(tetrahydrofuran-2-yl)-N-(5-(2-(4-(trifluoromethyl)phenoxy)ethyl)-1H-indol-3-yl)methanesulfonamide] |
| 200 to 1000 nM | O=S(=O)(CC1CC1)Nc1c[nH]c2ccc(CCOc3ccc(C(F)(F)F)cc3)cc12 [Compound 126, 1-cyclopropyl-N-(5-(2-(4-(trifluoromethyl)phenoxy)ethyl)-1H-indol-3-yl)methanesulfonamide] |
